Source: patent publication US5314819A, “Protein having nitrile hydratase activity obtained from rhizobium, gene encoding the same, and a method for producing amides from nitriles via a transformant containing the gene” (Mitsubishi Kasei Corporation, priority 1992, dated 1994)

System: AM24 protein
Assay: Evaluation of the nitrile hydratase activity of AM24 protein (2): substrate specificity
Format: biochemical, Rhizobium sp. MCI2643
Conditions: activity defined as 100 when acrylonitrile is the substrate; 0.2% (v/v) nitrile solution, 25° C., 5 minutes, pH 7.0; amide measured by HPLC
Description: One volume of the AM24 protein solution (its absorbance was 0.1 at 280 nm) and 4 volumes of 0.5M phosphate buffer, pH 7.0 were mixed together, to which were added 90 volumes of a 0.2% (v/v) solution of a nitrile compound for reaction at 25° C. for 5 minutes. After the reaction, 5 volumes of 1N HCl were added to terminate the reaction, and the resulting solution was then applied to an ODS column for HPLC, to measure the resulting amide compound. As the nitrile compound as the substrate, use was made of acrylonitrile, propionitrile, n-butyronitrile, isobutyronitrile, acetonitrile, chloroacetonitrile, malonamidenitrile, methacrylonitrile, 3-cyanopyridine, benzonitrile, and chrotononitrile.
The relative activity of each substrate is shown in Table 1, provided that the activity is defined as 100 when acrylonitrile is used as a reaction substrate.

Structure (SMILES) | Specific activity (%) (relative activity of each substrate)
C=CC#N [Acrylonitrile] | 100
N#CCC(N)=O [Malonamidenitrile] | 143
N#Cc1ccccc1 [Benzonitrile] | 251
CCCC#N [n-Butyronitrile] | 152
CCC#N [Propionitrile] | 59
N#Cc1cccnc1 [3-Cyanopyridine] | 9
CC(C)C#N [Isobutyronitrile] | 28
CC=CC#N [Chrotononitrile] | 34
C=C(C)C#N [Methacrylonitrile] | 143
N#CCCl [Chloroacetonitrile] | 671
CC#N [Acetonitrile] | 47

System: transformant containing the pEAM24X1
Assay: Conversion of a nitrile into an amide using the transformant containing pEAM24X1
Format: cell-based, Escherichia coli DH5 α
Conditions: transformant cultured with CoCl2 and IPTG; aqueous 7% acrylonitrile solution, 30° C., 1 hour; HPLC
Description: The transformant containing the pEAM24X1 obtained in Example 7 was cultured overnight at 27° C. in 10 ml of an LB culture medium (containing 50 μg/ml Ampicillin). […] The strain were centrifuged and harvested, washed once in physiological saline, and suspended in 1.6 ml of a phosphate buffer (pH 7.0, 0.1M). 0.32 ml of the suspension was sampled, followed by mixing with 80 μl of an aqueous 7% acrylonitrile solution for reaction at 30° C. for 1 hour. After the termination of the reaction by addition of HCl as described before, the acrylamide and acrylonitrile concentrations in the reaction solution were determined by HPLC.
Thus cobalt is essential for nitrile hydratase activity.

Structure (SMILES) | conversion of acrylonitrile to acrylamide
C=CC#N [Acrylonitrile] | complete

Same assay, conditions: transformant harboring pEAM24X1 cultured in a culture medium without cobalt

Structure (SMILES) | acrylamide in the reaction solution after termination of the reaction
C=CC#N [Acrylonitrile] | no acrylamide was detected
